The values that follow come from ChEMBL document CHEMBL5223109, “The discovery of BMS-737 as a potent, CYP17 lyase-selective inhibitor for the treatment of castration-resistant prostate cancer” (Bioorg Med Chem Lett, 2022).

Usually pIC50 stands for the negative decadic logarithm of the IC50, by convention in mol/L.

pIC50: −log10 of the molar value.

One data set addresses T1, Cytochrome P450 1A2 (Homo sapiens, UniProt P05177).
T1 sequence (P05177 whole entry): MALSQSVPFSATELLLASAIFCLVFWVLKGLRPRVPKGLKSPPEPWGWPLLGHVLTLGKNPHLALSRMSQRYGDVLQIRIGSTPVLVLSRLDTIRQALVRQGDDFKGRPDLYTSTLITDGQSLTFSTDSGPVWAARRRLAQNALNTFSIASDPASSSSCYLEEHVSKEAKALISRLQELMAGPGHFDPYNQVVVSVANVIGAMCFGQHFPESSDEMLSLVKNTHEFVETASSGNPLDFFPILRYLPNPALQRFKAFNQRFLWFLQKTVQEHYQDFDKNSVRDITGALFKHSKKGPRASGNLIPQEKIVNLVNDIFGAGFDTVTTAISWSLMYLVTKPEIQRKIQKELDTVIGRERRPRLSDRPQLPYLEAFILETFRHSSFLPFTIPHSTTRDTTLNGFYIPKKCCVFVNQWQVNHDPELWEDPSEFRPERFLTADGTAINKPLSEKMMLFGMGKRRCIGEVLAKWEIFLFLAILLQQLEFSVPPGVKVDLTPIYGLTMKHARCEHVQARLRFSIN
The data set is described as follows: Inhibition of CYP1A2 (unknown origin). The class given is ADME.

Data set [1] can be described thus: Metabolic stability in human liver microsomes assessed as parent compound remaining relative to control. Also: time not given here. The class given is ADME, Microsome.
Data set [2] in a line: Metabolic stability in mouse liver microsomes assessed as parent compound remaining. Also: time not given here. The class given is ADME, Microsome. Background: Liver microsomes are vesicles of endoplasmic reticulum, rich in cytochrome P450 enzymes.
Data set [3] addresses T2, Steroid 17-alpha-hydroxylase/17,20 lyase (Homo sapiens, UniProt P05093).
T2 sequence (P05093 whole entry): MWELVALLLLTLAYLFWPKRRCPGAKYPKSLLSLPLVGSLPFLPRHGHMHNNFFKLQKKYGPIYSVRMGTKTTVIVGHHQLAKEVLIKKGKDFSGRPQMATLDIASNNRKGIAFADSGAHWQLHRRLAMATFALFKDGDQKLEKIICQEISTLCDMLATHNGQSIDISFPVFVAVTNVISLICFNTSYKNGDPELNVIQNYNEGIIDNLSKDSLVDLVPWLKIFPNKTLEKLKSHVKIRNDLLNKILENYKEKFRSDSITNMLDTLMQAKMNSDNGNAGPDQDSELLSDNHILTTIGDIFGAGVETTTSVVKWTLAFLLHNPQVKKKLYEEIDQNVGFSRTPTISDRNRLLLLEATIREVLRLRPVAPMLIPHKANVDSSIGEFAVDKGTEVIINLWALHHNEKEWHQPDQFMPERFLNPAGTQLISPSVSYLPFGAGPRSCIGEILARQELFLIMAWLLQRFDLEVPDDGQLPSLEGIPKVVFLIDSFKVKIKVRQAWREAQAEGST
Description: Inhibition of human CYP17A1. The class given is ADME.

The nature of data set [4]: Metabolic stability in rat liver microsomes assessed as parent compound remaining. Also: time not given here. The class given is ADME, Microsome.
Data set [5] has as its target T2, Steroid 17-alpha-hydroxylase/17,20 lyase. Description: Selectivity ratio for inhibition of human CYP17A1 hydroxylase activity to inhibition of human CYP17A1 lyase activity. The class given is ADME.

Turning to `Cc1ccncc1-c1cccc2c(-c3ccccc3)noc12`, the pIC50 against Cytochrome P450 1A2 was 7.55; in data set [3] it was 9.00. Moreover, the results for the Stability in data set [1], in data set [2] and in data set [4] were 80%, 5% and 6%, respectively.
As to `Cn1cncc1-c1ccnc2c1cnn2-c1ccc(F)cc1`, in data set [5], the Ratio is given as 30. The pIC50 against Cytochrome P450 1A2 was 7.24. Besides, the Stability in data set [1] was determined as 100%; in data set [2], 37%; in data set [4], 56%.
Regarding `Cc1ccncc1-c1ccnn2c(-c3ccccc3)cnc12`, the negative logarithm of the IC50 (pIC50) against Cytochrome P450 1A2 was 6.50. For the same molecule, the Stability is reported as 100% in data set [1], 26% in data set [2] and 47% in data set [4].
Take `Cc1ccncc1-c1ccnc2c1cnn2-c1cccc(F)c1`: in data set [5], the Ratio came out at 36. Further, the pIC50 was 6.55 against Cytochrome P450 1A2 and 7.57 in data set [3]. The Stability in data set [1] turned out to be 76%; in data set [2], 4%; in data set [4] it was 9%.
In the case of `Cc1ccncc1-c1ccnc2c1cnn2-c1ccccc1`, the values for the pIC50 (against Cytochrome P450 1A2; in data set [3]) were 6.25 and 8.15, respectively. Moreover, the Stability in data set [1] is 73%; in data set [2], 7%; in data set [4] it was 4%.
Consider `Fc1ccc(-n2ncc3c(-c4cccnc4)ccnc32)cc1`, for which the pIC50 against Cytochrome P450 1A2 is 6.67; in data set [3], 7.02.
Consider `Cc1ccncc1-c1ccnc2c1cnn2-c1nccs1`, for which the negative logarithm of the IC50 (pIC50) on Cytochrome P450 1A2 was 6.21; in data set [3], 7.04. Moreover, the Stability was determined as 64% in data set [1], 42% in data set [2] and 48% in data set [4].
In the case of `Cc1ccncc1-c1ccnc2c1cnn2CC(F)(F)F`, the Ratio in data set [5] is listed as 12. Further, the negative logarithm of the IC50 (pIC50) against Cytochrome P450 1A2 is 4.95. Also, the Stability is 92% in data set [1], 41% in data set [2] and 30% in data set [4].
As to `Cc1ccncc1-c1ccnc2c1cnn2-c1ncccc1Cl`, in data set [5], the Ratio came out at 7. Further, the negative-log IC50 (pIC50) at Cytochrome P450 1A2 was 4.78; in data set [3] it was 8.30. For the same molecule, the values for the Stability in data set [1], in data set [2] and in data set [4] were 88%, 25% and 26%, respectively.
Turning to `Cc1ccncc1-c1ccnc2c1cnn2-c1ccc(F)cc1F`, the Ratio in data set [5] worked out at 19. Moreover, the values for the pIC50 (against Cytochrome P450 1A2; in data set [3]) were 5.28 and 8.05, respectively. The Stability was 100% in data set [1], 37% in data set [2] and 18% in data set [4].
For the molecule `COc1c(F)cccc1-n1ncc2c(-c3cnccc3C)ccnc21`, in data set [5], the Ratio worked out at 7. For the same molecule, the pIC50 is 5.32 on Cytochrome P450 1A2 and 7.85 in data set [3]. In addition, the results for the Stability in data set [1], in data set [2] and in data set [4] were 77%, 2% and 0.2%, respectively.
As for `Cc1ccncc1-c1ccnc2c1cnn2C(C)(C)C`, the results for the pIC50 (on Cytochrome P450 1A2; in data set [3]) were 5.28 and 7.04, respectively. In addition, the Stability in data set [2] turned out to be 15%; in data set [4] it was 16%.
For the molecule `Nc1ncncc1-c1ccnc2c1cnn2-c1cccc(S(N)(=O)=O)c1`, the pIC50 was under 4.40 against Cytochrome P450 1A2 and 7.00 in data set [3]. Besides, the figures for the Stability in data set [1], in data set [2] and in data set [4] were 100%, 95% and 89%, respectively.
The matching figures for `COc1ccccc1-n1ncc2c(-c3cnccc3C)ccnc21`: 4.81, 8.05, 88%, 2% and 1%.
Consider `Cc1ncncc1-c1ccnc2c1cnn2-c1ccc(F)cc1`, for which, in data set [5], the Ratio is 4. The same molecule had a negative-log IC50 (pIC50) against Cytochrome P450 1A2 of 5.56.
As for `Cc1ccncc1-c1ccnc2c1cnn2Cc1ccc(F)cc1`, the pIC50 is 5.29 against Cytochrome P450 1A2 and 6.10 in data set [3].
As for `Cc1ccncc1-c1ccnn2c(-c3ccccc3)ccc12`, the pIC50 on Cytochrome P450 1A2 is 6.74; in data set [3], 8.30. Besides, the values for the Stability in data set [1], in data set [2] and in data set [4] were 70%, 7% and 3%, respectively.
For the molecule `Cc1ccncc1-c1ccnc2c1cnn2C`, the pIC50 on Cytochrome P450 1A2 is under 4.40; in data set [3], under 6.00.
As for `Fc1ccc(-n2ncc3c(-c4cncnc4C(F)(F)F)ccnc32)cc1`, the results for the pIC50 (on Cytochrome P450 1A2; in data set [3]) were 5.67 and 6.85, respectively. Moreover, the Stability in data set [1] was 88%; in data set [2], 56%; in data set [4], 63%.
The matching figures for `Cc1ccncc1-c1ccnc2c(-c3ccccc3)noc12`: 6.49, 8.30, 80%, 5% and 7%.
For the molecule `Cc1ccncc1-c1cccc2c(-c3ccccc3)cnn12`, the pIC50 against Cytochrome P450 1A2 is 7.47; in data set [3] it was 8.70. For the same molecule, the Stability is on record as 79% in data set [1], 6% in data set [2] and 3% in data set [4].
For `Cc1ccncc1-c1ccnc2c1cnn2-c1ccc(F)cc1Cl`, in data set [5], the Ratio is reported as 3. The pIC50 is 5.06 at Cytochrome P450 1A2 and 8.40 in data set [3]. Also, the Stability in data set [1] is 74%; in data set [2], 14%; in data set [4] it was 0.9%.
With `Cc1ccncc1-c1ccnc2c(-c3ccccc3)csc12`, the values for the pIC50 (at Cytochrome P450 1A2; in data set [3]) were 6.60 and 8.00, respectively. Further, the Stability in data set [1] is 65%; in data set [2], 2%; in data set [4] it was 3%.
The matching figures for `Cc1ccncc1-c1cccc2c(-c3ccccc3)csc12`: 6.87, 8.52, 84%, 3% and 2%.
Consider `Nc1ncncc1-c1ccnc2c1cnn2-c1c(F)cc(F)cc1F`, for which the Ratio in data set [5] amounted to 3. The values for the pIC50 (against Cytochrome P450 1A2; in data set [3]) were under 4.40 and 8.30, respectively. In addition, the Stability is reported as 82% in data set [2] and 87% in data set [4].
In the case of `COc1ccncc1-c1ccnc2c1cnn2-c1ccc(F)cc1`, the Ratio in data set [5] is given as 10. In addition, the negative-log IC50 (pIC50) was 6.14 against Cytochrome P450 1A2 and 7.96 in data set [3]. Besides, the results for the Stability in data set [1], in data set [2] and in data set [4] were 86%, 58% and 32%, respectively.
Turning to `Cc1ccncc1-c1ccnc2c1cnn2-c1ccc(F)cc1`, the Ratio in data set [5] came out at 43. Further, the figures for the pIC50 (against Cytochrome P450 1A2; in data set [3]) were 6.42 and 8.22, respectively. Besides, the Stability in data set [1] turned out to be 100%; in data set [2] it was 27%; in data set [4], 43%.
As for `Cc1ccncc1-c1ccnc2c1cnn2-c1ccc(F)c(Cl)c1`, the Ratio in data set [5] was determined as 10. Further, the results for the negative logarithm of the IC50 (pIC50) (against Cytochrome P450 1A2; in data set [3]) were 6.18 and 7.62, respectively. Further, the Stability is 85% in data set [1], 2% in data set [2] and 37% in data set [4].
Turning to `Fc1ccc(-n2ncc3c(-c4cncn5cccc45)ccnc32)cc1`, the Ratio in data set [5] is 13. Also, the negative logarithm of the IC50 (pIC50) is 5.63 against Cytochrome P450 1A2 and under 6.00 in data set [3]. Moreover, the Stability in data set [1] amounted to 72%; in data set [2] it was 1%; in data set [4], 12%.
In the case of `Nc1ncncc1-c1ccnc2c1cnn2-c1ccccn1`, the negative-log IC50 (pIC50) against Cytochrome P450 1A2 is under 4.40. The Stability in data set [1] amounted to 100%; in data set [2], 70%; in data set [4] it was 100%.
`Nc1ccncc1-c1ccnc2c1cnn2-c1ccc(F)cc1`: the Ratio in data set [5] turned out to be 7. Besides, the results for the negative logarithm of the IC50 (pIC50) (against Cytochrome P450 1A2; in data set [3]) were 4.57 and 8.30, respectively. In addition, the Stability was 99% in data set [1], 3% in data set [2] and 0.2% in data set [4].
Turning to `Cc1ccncc1-c1cccc2c1OCCN2c1ccccc1`, the figures for the pIC50 (at Cytochrome P450 1A2; in data set [3]) were 6.85 and 8.10, respectively. In addition, the Stability is given as 62% in data set [1], 2% in data set [2] and 0.8% in data set [4].
The matching figures for `COc1cccc(-n2ncc3c(-c4cnccc4C)ccnc32)c1`: 5.83, 8.52, 21%, 37% and 6%.
As to `Nc1ncncc1-c1ccnc2c1cnn2-c1ncccc1C(F)(F)F`, in data set [5], the Ratio is given as 4. Besides, the Stability is 98% in data set [1], 62% in data set [2] and 84% in data set [4]. The pIC50 in data set [3] is 7.96.
